Experimental data published in patent EP4813403A1, “USE OF GLP-1R/GIPR DOUBLE-TARGET AGONIST IN PREPARING ANIMAL DRUG” (Hangzhou Zhongmeihuadong Pharmaceutical Co., Ltd., priority 2023, dated 2025).

How the values were obtained:
[1] = Pharmacokinetics following single administration in SD rats; settings: male, Sprague-Dawley, rat, in vivo, sc
Experimental: The compound was administrated to male SD rats (230-268 g, n=3) at a dose of 50.0 nmol/kg (s.c.) or 25.0 nmol/kg (i.v.). […] 30.0 μL of thawed plasma sample was taken. 150 μL of acetonitrile solution (containing 5 ng·mL^-1 Verapamil , 50 ng·mL^-1 Glibenclamide, 200 ng·mL^-1 Tolbutamide and 200 ng·mL^-1 Diclofenac) were added to precipitate protein. The mixture was vortexed for 5 minutes, and centrifuged at 3700 rpm for 8 minutes. 70.0 μL of the supernatant was taken, into which 70.0 μL of 0.5% aqueous formic acid solution was added. The mixture was vortexed for 5 minutes. 15 μL of the mixture solution was sampled and injected into the LC-MS/MS to determine the drug concentration in plasma. 20.0 μL of thawed plasma sample was taken. 60 μL of acetonitrile solution (containing 5 ng·mL^-1 Verapamil, 50 ng·mL^-1 Glibenclamide, 200 ng·mL^-1 Tolbutamide and 200 ng·mL^-1 Diclofenac) were added to precipitate protein. […] The mixture was vortexed for 10 minutes. 10.0 μL of the mixture solution was sampled and injected into the LC-MS/MS to determine the drug concentration in plasma. 30.0 μL of thawed plasma sample was taken. 150 μL of acetonitrile solution (containing 5 ng·mL^-1 Verapamil, 50 ng·mL^-1 Glibenclamide, 200 ng·mL^-1 Tolbutamide and 200 ng·mL^-1 Diclofenac) were added to precipitate protein. The mixture was vortexed for 5 minutes, and centrifuged at 3700 rpm for 8 minutes. 70.0 μL of the supernatant was taken, into which 70.0 μL of 0.5% aqueous formic acid solution was added. The mixture was vortexed for 5 minutes. 10.0 μL of the mixture solution was sampled and injected into the LC-MS/MS to determine the drug concentration in plasma. […] Table 5 Pharmacokinetic Parameters after Subcutaneous Injection of Different Polypeptide Compounds to Rats

human GLP-1R = human GLP-1R (Homo sapiens, UniProt P43220); test: In vitro binding activity to human GLP-1 receptor ([125I]GLP-1 displacement, crude cell membranes); parameters: expressed in transfected cells; settings: ratio of the Ki value of the endogenous ligand to the Ki value of the test compound; larger ratio = stronger binding
Experimental: (§1) 89 µL of membrane dissolved in binding buffer (50 mM Hepes, pH 7.4, 5 mM MgCl2 , 5 mM EDTA, 0.005% TWEEN, 0.005% HSA) was transferred to a 96-well test plate (5 µg/well). The compound was serially diluted in DMSO, and then, 1 µL of the diluted compound or 100% DMSO was added to the test plate containing the membrane solution. 10 µL of [^125I] […] The test plate was left at room temperature for 90 minutes. The membrane complexes were harvested into a GF/B plate pre-coated with 0.5% PEI by using a Cell Harvester, and washed for 3 times with 500 µL of pre-cooled elution buffer (50 mM Hepes, pH 7.4, 500 mM NaCl) at 4°C. After drying at 37°C for 2 hours, 50 µL of scintillation fluid was added to each well. The plate was read with a MicroBeta2 scintillation counter after sealing and settling for at least 1 hour so as to determine the membrane bound radioligand level.
The IC50 concentration was converted to Ki (Ki was the inhibition constant) using the Cheng-Prusoff equation.

db/db mice = test: Pharmacodynamic effects in db/db mice, single subcutaneous administration (blood glucose); assay type: in vivo; settings: single s.c. 10 nmol/kg
Experimental: In this study, 8-9 week old male db/db mice were used. The db/db mice were placed in an individual ventilated cage (IVC) facility with a controlled temperature (20-26°C) and humidity (40-70%) and a controlled 12h:12 h light-dark cycle. The mice can receive food and water ad libitum. Blood was sampled at the tail tip, and the random base blood glucose was measured by a Roche blood glucose meter. The mice were randomly divided into groups according to the random initial fasting blood glucose and initial body weight (n=6/group), and each group had similar body weight and blood glucose.
After a single subcutaneous administration, the random base blood glucoses were recorded at the set time point (0 to 120 hours, the recording of the random base blood glucose was stopped until there was no difference between the random base blood glucose of the compound and that of the vehicle group), and the daily body weight and food intake were also recorded. The data results were statistically analyzed using GraphPad Prism8, and the statistical differences among the groups were analyzed following a T-Test. Significant differences were identified at p<0.05.
Hypoglycemic Duration: the longest time during which the random base blood glucose of the compound has a significant difference (p<0.05) vs. the vehicle group. Table 13. Hypoglycemic Duration of the Compounds

human GIP Receptor = biological target: T1, human GIP Receptor (Homo sapiens, UniProt P48546); test: In vitro binding activity to human GIP receptor ([125I]GIP displacement, crude cell membranes); settings: ratio of the Ki value of the endogenous ligand to the Ki value of the test compound; larger ratio = stronger binding
T1 construct: expressed in transfected cells
T1 sequence (P48546 22-466): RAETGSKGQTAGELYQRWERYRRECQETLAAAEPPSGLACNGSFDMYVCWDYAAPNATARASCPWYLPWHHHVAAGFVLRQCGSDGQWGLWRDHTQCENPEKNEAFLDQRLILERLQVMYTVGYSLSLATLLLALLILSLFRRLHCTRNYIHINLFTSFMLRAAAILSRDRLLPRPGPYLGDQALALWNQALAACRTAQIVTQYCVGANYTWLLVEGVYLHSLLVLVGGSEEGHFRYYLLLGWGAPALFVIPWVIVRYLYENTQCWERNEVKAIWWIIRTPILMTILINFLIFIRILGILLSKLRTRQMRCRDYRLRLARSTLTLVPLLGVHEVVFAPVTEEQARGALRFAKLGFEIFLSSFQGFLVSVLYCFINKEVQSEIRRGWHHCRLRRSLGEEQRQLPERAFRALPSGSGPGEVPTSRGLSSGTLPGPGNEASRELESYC
Experimental: as §1
hGIP and the compound of the present invention were dissolved in DMSO and stored at -80°C. 98 µL of membrane dissolved in binding buffer (50 mM HEPES pH 7.4, 5 mM MgCl2, 1 mM CaCl2, 0.1% BSA, 0.005% Tween-20) was transferred to a 96-well test plate (15 µg/well). The compound was serially diluted in DMSO, and then, 2 µL of the diluted compounds or 100% DMSO was added to the test plate containing the membrane solution. […] The test plate was left at room temperature for 90 minutes. The membrane complexes were harvested into a GF/B plate pre-coated with 0.5% PEI by using a Cell Harvester, and washed for 3 times with 500 µL of pre-cooled elution buffer (50 mM Tris-HCl pH 7.4, 125 mM NaCl) at 4°C. After drying at 37°C for 2 hours, 50 µL of scintillation fluid was added to each well. The plate was read with a MicroBeta2 scintillation counter after sealing and settling for at least 1 hour so as to determine the membrane bound radioligand level.
The IC50 concentration was converted to Ki (Ki was the inhibition constant) using the Cheng-Prusoff equation. Table 1. Receptor Binding Affinity, Ki Ratio

[2] = Group 1, longest time with p<0.05 vs. vehicle
[3] = Group 2, longest time with p<0.05 vs. vehicle

Chain of human GLP-1R (P43220 24-463): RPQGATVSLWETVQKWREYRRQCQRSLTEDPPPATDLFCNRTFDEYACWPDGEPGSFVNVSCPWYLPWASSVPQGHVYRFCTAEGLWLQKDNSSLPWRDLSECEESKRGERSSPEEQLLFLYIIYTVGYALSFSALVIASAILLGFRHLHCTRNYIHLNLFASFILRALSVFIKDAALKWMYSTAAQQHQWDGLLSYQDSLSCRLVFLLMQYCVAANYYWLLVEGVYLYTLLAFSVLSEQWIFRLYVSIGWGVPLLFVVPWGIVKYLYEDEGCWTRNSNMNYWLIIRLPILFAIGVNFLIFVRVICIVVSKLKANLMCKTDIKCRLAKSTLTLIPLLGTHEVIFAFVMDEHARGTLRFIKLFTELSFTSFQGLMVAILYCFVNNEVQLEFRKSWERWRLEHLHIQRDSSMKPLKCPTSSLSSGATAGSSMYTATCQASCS

Row | Compound | Tmax [1] [h] | half-life [1] [h] | GLP-1R Ki ratio (human GLP-1R) | Hypoglycemic Duration (db/db mice; [2]) [h] | hypoglycemic duration longer than that of Tirzepatide (db/db mice) | inhibition of the blood glucose AUC, times of that of P001 (db/db mice) [times] | GIPR Ki ratio (human GIP Receptor) | Hypoglycemic Duration (db/db mice; [3]) [h]
1 | CC[C@H](C)[C@H](NC(=O)C(C)(C)NC(=O)[C@H](Cc1ccc(O)cc1)NC(=O)[C@H](CC(=O)O)NC(=O)[C@H](CO)NC(=O)[C@@H](NC(=O)C(C)(Cc1ccccc1)NC(=O)[C@@H](NC(=O)CNC(=O)[C@H](CCC(=O)O)NC(=O)C(C)(C)NC(=O)[C@@H](N)Cc1ccc(O)cc1)[C@@H](C)O)[C@@H](C)O)C(=O)NC(C)(C)C(=O)N[C@@H](CC(C)C)C(=O)N[C@@H](CC(=O)O)C(=O)N[C@@H](CCCCN)C(=O)N[C@@H](CCC(N)=O)C(=O)N[C@@H](C)C(=O)N[C@@H](CCC(N)=O)C(=O)N[C@@H](C)C(=O)N[C@@H](CCC(=O)O)C(=O)N[C@@H](Cc1ccccc1)C(=O)N[C@H](C(=O)N[C@@H](CCCCNC(=O)COCCOCCNC(=O)COCCOCCNC(=O)CC[C@H](NC(=O)CCCCCCCCCCCCCCCCC(=O)O)C(=O)O)C(=O)N[C@@H](Cc1c[nH]c2ccccc12)C(=O)N[C@@H](CC(C)C)C(=O)N[C@@H](CC(C)C)C(=O)N[C@@H](CCCCN)C(=O)NCC(=O)NCC(=O)N1CCC[C@H]1C(=O)N[C@@H](CO)C(=O)N[C@@H](CO)C(=O)NCC(=O)N[C@@H](C)C(=O)N1CCC[C@H]1C(=O)N1CCC[C@H]1C(=O)N1CCC[C@H]1C(=O)N[C@@H](CO)C(=O)N[C@@H](CCCCN)C(N)=O)C(C)C (stereo partly drawn) [Compound P007] | 7.33 ± 1.15 | 15 ± 2.89 | 0.47 | 56 |  |  |  | 
2 | CC[C@H](C)[C@H](NC(=O)C(C)(C)NC(=O)[C@H](Cc1ccc(O)cc1)NC(=O)[C@H](CC(=O)O)NC(=O)[C@H](CO)NC(=O)[C@@H](NC(=O)C(C)(Cc1ccccc1)NC(=O)[C@@H](NC(=O)CNC(=O)[C@H](CCC(=O)O)NC(=O)C(C)(C)NC(=O)[C@@H](N)Cc1ccc(O)cc1)[C@@H](C)O)[C@@H](C)O)C(=O)NC(C)(C)C(=O)N[C@@H](CC(C)C)C(=O)N[C@@H](CC(=O)O)C(=O)N[C@@H](CCCCN)C(=O)N[C@@H](CCC(N)=O)C(=O)N[C@@H](C)C(=O)N[C@@H](CCC(N)=O)C(=O)N[C@@H](C)C(=O)N[C@@H](CCC(=O)O)C(=O)N[C@@H](Cc1ccccc1)C(=O)N[C@H](C(=O)N[C@@H](CCCCN)C(=O)N[C@@H](Cc1c[nH]c2ccccc12)C(=O)N[C@@H](CC(C)C)C(=O)N[C@@H](CC(C)C)C(=O)N[C@@H](CCCCNC(=O)COCCOCCNC(=O)COCCOCCNC(=O)CC[C@H](NC(=O)CCCCCCCCCCCCCCCCC(=O)O)C(=O)O)C(=O)NCC(=O)NCC(=O)N1CCC[C@H]1C(=O)N[C@@H](CO)C(=O)N[C@@H](CO)C(=O)NCC(=O)N[C@@H](C)C(=O)N1CCC[C@H]1C(=O)N1CCC[C@H]1C(=O)N1CCC[C@H]1C(=O)N[C@@H](CO)C(=O)N[C@@H](CCCCN)C(N)=O)C(C)C (stereo partly drawn) [Compound P008] | 13.3 ± 9.24 | 18.7 ± 4.82 |  | 72 | more than 16 hours | 2.3 |  | 
3 | CC[C@H](C)[C@H](NC(=O)C(C)(C)NC(=O)[C@H](Cc1ccc(O)cc1)NC(=O)[C@H](CC(=O)O)NC(=O)[C@H](CO)NC(=O)[C@@H](NC(=O)C(C)(Cc1ccccc1)NC(=O)[C@@H](NC(=O)CNC(=O)[C@H](CCC(=O)O)NC(=O)C(C)(C)NC(=O)[C@@H](N)Cc1ccc(O)cc1)[C@@H](C)O)[C@@H](C)O)C(=O)NC(C)(C)C(=O)N[C@@H](CC(C)C)C(=O)N[C@@H](CC(=O)O)C(=O)N[C@@H](CCCCN)C(=O)N[C@@H](CCC(N)=O)C(=O)N[C@@H](C)C(=O)N[C@@H](CCC(N)=O)C(=O)N[C@@H](C)C(=O)N[C@@H](CCC(=O)O)C(=O)N[C@@H](Cc1ccccc1)C(=O)N[C@H](C(=O)N[C@@H](CCCCNC(=O)COCCOCCNC(=O)COCCOCCNC(=O)CC[C@H](NC(=O)CCCCCCCCCCCCCCCCCCC(=O)O)C(=O)O)C(=O)N[C@@H](Cc1c[nH]c2ccccc12)C(=O)N[C@@H](CC(C)C)C(=O)N[C@@H](CC(C)C)C(=O)N[C@@H](CCCCN)C(=O)NCC(=O)NCC(=O)N1CCC[C@H]1C(=O)N[C@@H](CO)C(=O)N[C@@H](CO)C(=O)NCC(=O)N[C@@H](C)C(=O)N1CCC[C@H]1C(=O)N1CCC[C@H]1C(=O)N1CCC[C@H]1C(=O)N[C@@H](CO)C(=O)N[C@@H](CCCCN)C(N)=O)C(C)C (stereo partly drawn) [Compound P013] | 24 | 15 ± 0.737 | 0.28 |  |  |  | 0.14 | 72
4 | CC[C@H](C)[C@H](NC(=O)C(C)(C)NC(=O)[C@H](Cc1ccc(O)cc1)NC(=O)[C@H](CC(=O)O)NC(=O)[C@H](CO)NC(=O)[C@@H](NC(=O)C(C)(Cc1ccccc1)NC(=O)[C@@H](NC(=O)CNC(=O)[C@H](CCC(=O)O)NC(=O)C(C)(C)NC(=O)[C@@H](N)Cc1ccc(O)cc1)[C@@H](C)O)[C@@H](C)O)C(=O)NC(C)(C)C(=O)N[C@@H](CC(C)C)C(=O)N[C@@H](CC(=O)O)C(=O)N[C@@H](CCCCN)C(=O)N[C@@H](CCC(N)=O)C(=O)N[C@@H](C)C(=O)N[C@@H](CCC(N)=O)C(=O)N[C@@H](C)C(=O)N[C@@H](CCC(=O)O)C(=O)N[C@@H](Cc1ccccc1)C(=O)N[C@H](C(=O)N[C@@H](CCCCNC(=O)COCCOCCNC(=O)COCCOCCNC(=O)CC[C@H](NC(=O)CC[C@H](NC(=O)CC[C@H](NC(=O)CCCCCCCCCCCCCCCCC(=O)O)C(=O)O)C(=O)O)C(=O)O)C(=O)N[C@@H](Cc1c[nH]c2ccccc12)C(=O)N[C@@H](CC(C)C)C(=O)N[C@@H](CC(C)C)C(=O)N[C@@H](CCCCN)C(=O)NCC(=O)NCC(=O)N1CCC[C@H]1C(=O)N[C@@H](CO)C(=O)N[C@@H](CO)C(=O)NCC(=O)N[C@@H](C)C(=O)N1CCC[C@H]1C(=O)N1CCC[C@H]1C(=O)N1CCC[C@H]1C(=O)N[C@@H](CO)C(=O)N[C@@H](CCCCN)C(N)=O)C(C)C (stereo partly drawn) [Compound P015] | 24 | 16.1 ± 1.21 | 0.17 |  |  |  |  | 32
